# Data: PubChem BioAssay AID330 (DTP/NCI, 2004)
# “And” between values parts separate entries of the source, which are not always exact repeats. Identical values can stand only once. Inconclusive results and toxic doses are left out. Peptide text beside a SMILES is read from it. * marks the point of attachment. Boc = CC(C)(C)OC(=O)*
# System: P388 leukemia ip, CD2F1 mice, survival T/C
# Assay: NCI In Vivo Anticancer Drug Screen. Data for tumor model P388 Leukemia (intraperitoneal) in CD2F1 (CDF1) mice
# Conditions: endpoint: median survival time, higher = longer survival
# How it was run: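 Mice carrying the transplanted tumor received test compound or vehicle. Survival was recorded in each group, and the value is the treated-group measurement divided by that of the vehicle-treated control group.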
# [1] = dose: 50.0 mg/kg/injection, schedule: Q01DX009 (ip), vehicle: saline with Tween-80
# [2] = dose: 100.0 mg/kg/injection, schedule: Q01DX009 (ip), vehicle: saline with Tween-80
# [3] = dose: 200.0 mg/kg/injection, schedule: Q01DX009 (ip), vehicle: saline with Tween-80
# [4] = dose: 50.0 mg/kg/injection, schedule: Q01DX009 (ip), vehicle: Klucel (hydroxypropylcellulose) (HPC)
# [5] = dose: 100.0 mg/kg/injection, schedule: Q01DX009 (ip), vehicle: Klucel (hydroxypropylcellulose) (HPC)
# [6] = dose: 200.0 mg/kg/injection, schedule: Q01DX009 (ip), vehicle: Klucel (hydroxypropylcellulose) (HPC)
# [7] = dose: 12.5 mg/kg/injection, schedule: Q01DX009 (ip), vehicle: saline
# [8] = dose: 50.0 mg/kg/injection, schedule: Q01DX005 (ip), vehicle: saline
# [9] = dose: 100.0 mg/kg/injection, schedule: Q01DX005 (ip), vehicle: saline
# [10] = dose: 200.0 mg/kg/injection, schedule: Q01DX005 (ip), vehicle: saline
# [11] = dose: 100.0 mg/kg/injection, schedule: Q01DX005 (ip), vehicle: Klucel (hydroxypropylcellulose) (HPC)
smiles,measurement,setting,value
COC(=O)c1ccccc1NC(=NC(C)(C)C)c1ccccc1,T/C,[1],98 % of control
same,T/C,[2],98 % of control
same,T/C,[3],91 % of control
N#Cc1ccccc1S(=O)(=O)O,T/C,"dose: 100.0 mg/kg/injection, schedule: Q01DX001 (ip), vehicle: saline with Tween-80",96 % of control
same,T/C,"dose: 200.0 mg/kg/injection, schedule: Q01DX001 (ip), vehicle: saline with Tween-80",90 % of control
same,T/C,"dose: 400.0 mg/kg/injection, schedule: Q01DX001 (ip), vehicle: saline with Tween-80",102 % of control
O=C1C(Br)=C(Br)C(=O)c2c(Cl)ccc(O)c21,T/C,"dose: 12.5 mg/kg/injection, schedule: Q01DX009 (ip), vehicle: Klucel (hydroxypropylcellulose) (HPC)",101 % of control
same,T/C,"dose: 25.0 mg/kg/injection, schedule: Q01DX009 (ip), vehicle: Klucel (hydroxypropylcellulose) (HPC)",98 % of control
same,T/C,[4],101 % of control and 105 % of control
same,T/C,[5],88 % of control
same,T/C,[6],100 % of control
CC[N](CC)[Ge]([CH2]C)[CH2]C.CC[N](CC)[Ge]([CH2]C)[CH2]C,T/C,"dose: 6.25 mg/kg/injection, schedule: Q01DX009 (ip), vehicle: saline",106 % of control
same,T/C,[7],109 % of control
same,T/C,"dose: 50.0 mg/kg/injection, schedule: Q04DX003 (ip), vehicle: saline",116 % of control
same,T/C,"dose: 100.0 mg/kg/injection, schedule: Q04DX003 (ip), vehicle: saline",114 % of control
COC(=O)C(C)(O)C(C)C1CO1 (stereo unspecified),T/C,[8],98 % of control
same,T/C,[9],101 % of control
same,T/C,[10],121 % of control
O=C(CCl)NC(Cc1ccc(N(CCCl)CCCl)cc1)C(=O)O (stereo unspecified),T/C,"dose: 0.25 mg/kg/injection, schedule: Q01DX009 (ip), vehicle: Klucel (hydroxypropylcellulose) (HPC)",113 % of control and 96 % of control
same,T/C,"dose: 0.5 mg/kg/injection, schedule: Q01DX009 (ip), vehicle: Klucel (hydroxypropylcellulose) (HPC)",109 % of control and 115 % of control
same,T/C,"dose: 1.0 mg/kg/injection, schedule: Q01DX009 (ip), vehicle: Klucel (hydroxypropylcellulose) (HPC)",102 % of control and 115 % of control
same,T/C,"dose: 2.0 mg/kg/injection, schedule: Q01DX001 (ip), vehicle: Klucel (hydroxypropylcellulose) (HPC)",107 % of control
same,T/C,"dose: 4.0 mg/kg/injection, schedule: Q01DX001 (ip), vehicle: Klucel (hydroxypropylcellulose) (HPC)",108 % of control
same,T/C,"dose: 8.0 mg/kg/injection, schedule: Q01DX001 (ip), vehicle: Klucel (hydroxypropylcellulose) (HPC)",119 % of control
same,T/C,"dose: 128.0 mg/kg/injection, schedule: Q01DX009 (ip), vehicle: Klucel (hydroxypropylcellulose) (HPC)",166 % of control
same,T/C,"dose: 256.0 mg/kg/injection, schedule: Q01DX009 (ip), vehicle: Klucel (hydroxypropylcellulose) (HPC)",223 % of control
COc1ccc(S(=O)(=O)O)cc1-n1nc(C(=O)Nc2ccccc2)n[n+]1-c1cc(S(=O)(=O)[O-])ccc1OC,T/C,"dose: 100.0 mg/kg/injection, schedule: Q01DX001 (ip), vehicle: suspension in saline",100 % of control
same,T/C,"dose: 200.0 mg/kg/injection, schedule: Q01DX001 (ip), vehicle: suspension in saline",100 % of control
same,T/C,"dose: 400.0 mg/kg/injection, schedule: Q01DX001 (ip), vehicle: suspension in saline",103 % of control
CC1CCC(C(C)C)C(OC(=O)c2ccc[n+](C)c2)C1 (stereo unspecified),T/C,"dose: 12.5 mg/kg/injection, schedule: Q01DX005 (ip), vehicle: saline",105 % of control
same,T/C,"dose: 25.0 mg/kg/injection, schedule: Q01DX005 (ip), vehicle: saline",116 % of control
same,T/C,[8],100 % of control and 105 % of control
CCCCCCCCOS(=O)(=O)c1ccc([N+](C)(C)C)cc1,T/C,[7],103 % of control
same,T/C,"dose: 25.0 mg/kg/injection, schedule: Q01DX009 (ip), vehicle: saline",105 % of control
same,T/C,"dose: 50.0 mg/kg/injection, schedule: Q01DX009 (ip), vehicle: saline",110 % of control
Cc1cc(O)c(C=Nc2ccc3ccccc3c2)c2c1C(=O)Oc1c(CO)c(O)c(C(=O)O)c(C=Nc3ccc4ccccc4c3)c1O2,T/C,"dose: 12.5 mg/kg/injection, schedule: Q01DX005 (ip), vehicle: Klucel (hydroxypropylcellulose) (HPC)",86 % of control and 90 % of control
same,T/C,"dose: 25.0 mg/kg/injection, schedule: Q01DX005 (ip), vehicle: Klucel (hydroxypropylcellulose) (HPC)",104 % of control
same,T/C,[11],88 % of control and 92 % of control
CN1C(=O)C2(OC(N)=C(O)C2=O)c2ccccc21 (stereo unspecified),T/C,"dose: 50.0 mg/kg/injection, schedule: Q01DX005 (ip), vehicle: Klucel (hydroxypropylcellulose) (HPC)",99 % of control
same,T/C,[11],96 % of control
same,T/C,"dose: 200.0 mg/kg/injection, schedule: Q01DX005 (ip), vehicle: Klucel (hydroxypropylcellulose) (HPC)",97 % of control
CN(C)Cc1cc(O)c(CN(C)C)cc1O,T/C,"dose: 3.13 mg/kg/injection, schedule: Q01DX009 (ip), vehicle: saline + Tween-80 + alcohol",100 % of control
same,T/C,"dose: 6.25 mg/kg/injection, schedule: Q01DX009 (ip), vehicle: saline + Tween-80 + alcohol",101 % of control and 111 % of control
same,T/C,"dose: 12.5 mg/kg/injection, schedule: Q01DX009 (ip), vehicle: other",123 % of control
same,T/C,"dose: 12.5 mg/kg/injection, schedule: Q01DX009 (ip), vehicle: saline + Tween-80 + alcohol",102 % of control and 112 % of control
same,T/C,"dose: 25.0 mg/kg/injection, schedule: Q01DX009 (ip), vehicle: other",105 % of control
same,T/C,"dose: 25.0 mg/kg/injection, schedule: Q01DX009 (ip), vehicle: saline + Tween-80 + alcohol",107 % of control and 109 % of control
same,T/C,"dose: 50.0 mg/kg/injection, schedule: Q01DX009 (ip), vehicle: other",105 % of control
same,T/C,"dose: 100.0 mg/kg/injection, schedule: Q01DX009 (ip), vehicle: other",119 % of control
Clc1ccc(Cc2nc3ccccc3s2)cc1,T/C,"dose: 60.0 mg/kg/injection, schedule: Q01DX005 (ip), vehicle: saline with Tween-80",106 % of control
same,T/C,"dose: 120.0 mg/kg/injection, schedule: Q01DX005 (ip), vehicle: saline with Tween-80",121 % of control
CC(C)(C)OC(=O)NCC(=O)NCC(=O)O (Boc-Gly-Gly-OH),T/C,[8],102 % of control
same,T/C,[9],102 % of control
same,T/C,[10],101 % of control
CCCC[P+](CCCC)(CCCC)CC(=O)O,T/C,"dose: 25.0 mg/kg/injection, schedule: Q01DX009 (ip), vehicle: saline with Tween-80",97 % of control
same,T/C,[1],100 % of control
same,T/C,[2],95 % of control
CCS(=O)(=O)C(=O)N1CCN(C(=O)S(=O)(=O)CC)CC1,T/C,[4],98 % of control
same,T/C,[5],100 % of control
same,T/C,[6],106 % of control
N#CCN=NNc1ccc([N+](=O)[O-])cc1,T/C,"dose: 100.0 mg/kg/injection, schedule: Q01DX001 (ip), vehicle: Klucel (hydroxypropylcellulose) (HPC)",115 % of control
same,T/C,"dose: 200.0 mg/kg/injection, schedule: Q01DX001 (ip), vehicle: Klucel (hydroxypropylcellulose) (HPC)",107 % of control
same,T/C,"dose: 400.0 mg/kg/injection, schedule: Q01DX001 (ip), vehicle: Klucel (hydroxypropylcellulose) (HPC)",116 % of control
CN(C)c1ccc(C(c2cc3c(cc2O)OCO3)N2CCCC2)cc1 (stereo unspecified),T/C,"dose: 60.0 mg/kg/injection, schedule: Q01DX005 (ip), vehicle: Klucel (hydroxypropylcellulose) (HPC)",108 % of control
same,T/C,"dose: 120.0 mg/kg/injection, schedule: Q01DX005 (ip), vehicle: Klucel (hydroxypropylcellulose) (HPC)",109 % of control
same,T/C,"dose: 240.0 mg/kg/injection, schedule: Q01DX005 (ip), vehicle: Klucel (hydroxypropylcellulose) (HPC)",109 % of control
CC(C)SC=O,T/C,[4],100 % of control
same,T/C,[5],107 % of control
same,T/C,[6],106 % of control
CN(C)c1ncnc2c1ncn2CC(O)CN (stereo unspecified),T/C,"dose: 50.0 mg/kg/injection, schedule: Q01DX005 (ip), vehicle: distilled water + alcohol",100 % of control
same,T/C,"dose: 100.0 mg/kg/injection, schedule: Q01DX005 (ip), vehicle: distilled water + alcohol",103 % of control
same,T/C,"dose: 200.0 mg/kg/injection, schedule: Q01DX005 (ip), vehicle: distilled water + alcohol",96 % of control
CC1=NN(c2ccccc2)C(=O)C1=Nc1c(C)[nH]n(-c2ccccc2)c1=O,T/C,"dose: 15.0 mg/kg/injection, schedule: Q01DX009 (ip), vehicle: saline with Tween-80",103 % of control
same,T/C,"dose: 30.0 mg/kg/injection, schedule: Q01DX009 (ip), vehicle: saline with Tween-80",101 % of control
same,T/C,"dose: 50.0 mg/kg/injection, schedule: Q01DX005 (ip), vehicle: saline with Tween-80",114 % of control and 96 % of control
same,T/C,"dose: 60.0 mg/kg/injection, schedule: Q01DX009 (ip), vehicle: saline with Tween-80",105 % of control
same,T/C,"dose: 100.0 mg/kg/injection, schedule: Q01DX005 (ip), vehicle: saline with Tween-80",104 % of control and 102 % of control
same,T/C,"dose: 200.0 mg/kg/injection, schedule: Q01DX005 (ip), vehicle: saline with Tween-80",98 % of control and 110 % of control
CC(C)N1CCSC1=S,T/C,[1],104 % of control
same,T/C,[2],90 % of control
same,T/C,[3],100 % of control
